Experimental data reported in ChEMBL document CHEMBL1681739, “KDR inhibitor with the intramolecular non-bonded interaction: conformation-activity relationships of novel indole-3-carboxamide derivatives” (Bioorg Med Chem Lett, 2011).

The compounds below were run against T1, Vascular endothelial growth factor receptor 2 (Homo sapiens, UniProt P35968) (assay: Inhibition of KDR assessed as phosphorylation level of substrate at 10 uM by ELISA).
T1 sequence (P35968 whole entry): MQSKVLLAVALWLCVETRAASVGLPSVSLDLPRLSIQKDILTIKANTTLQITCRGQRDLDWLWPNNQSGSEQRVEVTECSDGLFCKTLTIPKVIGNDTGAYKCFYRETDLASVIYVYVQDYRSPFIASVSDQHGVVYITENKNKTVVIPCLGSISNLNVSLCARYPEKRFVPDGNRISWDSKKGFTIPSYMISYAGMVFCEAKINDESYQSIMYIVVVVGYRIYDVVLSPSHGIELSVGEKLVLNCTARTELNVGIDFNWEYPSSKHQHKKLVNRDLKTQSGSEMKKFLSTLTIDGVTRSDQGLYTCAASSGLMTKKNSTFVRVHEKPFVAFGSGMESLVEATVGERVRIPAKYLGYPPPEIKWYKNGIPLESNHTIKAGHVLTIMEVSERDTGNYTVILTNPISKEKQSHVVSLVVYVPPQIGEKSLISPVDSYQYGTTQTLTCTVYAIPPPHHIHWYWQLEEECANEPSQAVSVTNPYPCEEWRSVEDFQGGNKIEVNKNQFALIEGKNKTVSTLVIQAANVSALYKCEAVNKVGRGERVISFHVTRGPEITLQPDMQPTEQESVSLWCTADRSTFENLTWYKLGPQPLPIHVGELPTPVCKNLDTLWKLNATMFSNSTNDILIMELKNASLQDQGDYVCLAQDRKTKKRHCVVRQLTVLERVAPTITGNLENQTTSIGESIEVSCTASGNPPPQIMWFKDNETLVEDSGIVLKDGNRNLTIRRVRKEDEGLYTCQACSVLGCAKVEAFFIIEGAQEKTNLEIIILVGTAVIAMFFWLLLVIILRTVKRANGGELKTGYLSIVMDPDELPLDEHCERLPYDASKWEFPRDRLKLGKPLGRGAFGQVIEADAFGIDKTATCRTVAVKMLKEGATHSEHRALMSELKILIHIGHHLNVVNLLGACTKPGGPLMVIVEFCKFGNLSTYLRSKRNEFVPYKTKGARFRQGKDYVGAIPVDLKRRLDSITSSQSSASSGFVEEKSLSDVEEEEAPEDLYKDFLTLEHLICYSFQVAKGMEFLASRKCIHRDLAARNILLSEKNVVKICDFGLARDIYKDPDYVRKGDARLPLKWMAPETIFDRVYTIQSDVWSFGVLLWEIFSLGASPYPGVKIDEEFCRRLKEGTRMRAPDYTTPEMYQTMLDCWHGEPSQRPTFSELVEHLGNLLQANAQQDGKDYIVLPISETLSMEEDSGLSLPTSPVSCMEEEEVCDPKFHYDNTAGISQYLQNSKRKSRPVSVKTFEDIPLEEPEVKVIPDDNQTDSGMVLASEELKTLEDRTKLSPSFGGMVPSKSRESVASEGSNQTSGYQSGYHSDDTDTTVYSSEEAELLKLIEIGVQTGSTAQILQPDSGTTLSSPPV

| inhibition [%] | Structure (SMILES) |
| --- | --- |
| 52 | Cc1cccc(NC(=O)c2c[nH]c3cccc(SCc4ccncc4)c23)c1 |
| 25 | CC(C)(C)c1ccc(NC(=O)c2c[nH]c3cccc(NCc4ccncc4)c23)cc1 |
| 14 | O=C(Nc1ccc(OC(F)(F)F)cc1)c1c[nH]c2cccc(NCc3ccncc3)c12 |
| 19 | Cc1cc(C)cc(NC(=O)c2c[nH]c3cccc(NCc4ccncc4)c23)c1 |
| 92 | O=C(Nc1cccc(C(F)(F)F)c1)c1c[nH]c2cccc(SCc3ccncc3)c12 |
| 18 | O=C(Nc1cccc(Cl)c1)c1c[nH]c2cccc(NCc3ccncc3)c12 |
| 35 | O=C(Nc1cccc(Cl)c1)c1c[nH]c2cccc(SCc3ccncc3)c12 |
| 18 | Cc1cccc(NC(=O)c2c[nH]c3cccc(NCc4ccncc4)c23)c1 |
| 51 | CC(C)(C)c1ccc(NC(=O)c2c[nH]c3cccc(SCc4ccncc4)c23)cc1 |
| 6 | CC(C)(C)c1ccc(NC(=O)c2c[nH]c3cccc(OCc4ccncc4)c23)cc1 |
| 23 | O=C(Nc1ccc(Cl)cc1)c1c[nH]c2cccc(NCc3ccncc3)c12 |
| 19 | O=C(Nc1ccc2c(c1)CCC2)c1c[nH]c2cccc(OCc3ccncc3)c12 |
| 34 | O=C(Nc1ccc(Cl)cc1)c1c[nH]c2cccc(SCc3ccncc3)c12 |
| 25 | O=C(Nc1cccc(C(F)(F)F)c1)c1c[nH]c2cccc(NCc3ccncc3)c12 |
| 9 | O=C(Nc1ccc(Cl)cc1)c1c[nH]c2cccc(OCc3ccncc3)c12 |
| 74 | O=C(Nc1cc2ccccc2cn1)c1c[nH]c2cccc(SCc3ccncc3)c12 |
| 4 | O=C(Nc1cccc(C(F)(F)F)c1)c1c[nH]c2cccc(OCc3ccncc3)c12 |
| 35 | O=C(Nc1ccc(OC(F)(F)F)cc1)c1c[nH]c2cccc(SCc3ccncc3)c12 |
| 59 | O=C(Nc1ccc2c(c1)CCC2)c1c[nH]c2cccc(SCc3ccncc3)c12 |
| 55 | O=C(Nc1cc2ccccc2cn1)c1c[nH]c2cccc(NCc3ccncc3)c12 |
| 35 | Cc1cc(C)cc(NC(=O)c2c[nH]c3cccc(SCc4ccncc4)c23)c1 |
| 27 | O=C(Nc1ccc2c(c1)CCC2)c1c[nH]c2cccc(NCc3ccncc3)c12 |

Each compound was assayed against T1, Vascular endothelial growth factor receptor 2 (assay: Inhibition of KDR assessed as phosphorylation level of substrate by ELISA).

| IC50 [nM] | Structure (SMILES) |
| --- | --- |
| 309 | O=C(Nc1cccc(C(F)(F)F)c1)c1c[nH]c2cccc(SCc3ccncc3)c12 |
